Experimental data reported in US8192962B2, “Processes for detecting toxic substances” (Daikin Industries, Ltd., priority 2001, dated 2012).

Tested on: Transport facilitation protein genes
Experiment: DNA chip mRNA expression in yeast, transport facilitation protein genes (Table 5)
Type: cell-based, Saccharomyces cerevisiae S288C
Summary of the method: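 First, S288C yeast grown in YPD at 25° C. are dosed in log phase with one toxicant (growth-inhibiting, not lethal) for 2 h. Next, total RNA is extracted and poly(A) mRNA isolated and reverse-transcribed with Cy3/Cy5-dUTP. Finally, whole-genome chip fluorescence is read relative to unexposed cells.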

Compound: Oc1cc(Cl)c(Cl)cc1Cl [(6), 2,4,5-trichlorophenol]
- The level of expressed mRNA in the presence of chemical substance/The level of expressed mRNA in the absence of chemical substance (yeast gene YGR281W): 1.9
- The level of expressed mRNA in the presence of chemical substance/The level of expressed mRNA in the absence of chemical substance (yeast gene YHL035C): 4.1
- The level of expressed mRNA in the presence of chemical substance/The level of expressed mRNA in the absence of chemical substance (yeast gene YHL040C): 7.3
- The level of expressed mRNA in the presence of chemical substance/The level of expressed mRNA in the absence of chemical substance (yeast gene YHL047C): 8.4
- The level of expressed mRNA in the presence of chemical substance/The level of expressed mRNA in the absence of chemical substance (yeast gene YHR026W): 1.3
- The level of expressed mRNA in the presence of chemical substance/The level of expressed mRNA in the absence of chemical substance (yeast gene YHR092C): 1.7
- The level of expressed mRNA in the presence of chemical substance/The level of expressed mRNA in the absence of chemical substance (yeast gene YHR094C): 1.6
- The level of expressed mRNA in the presence of chemical substance/The level of expressed mRNA in the absence of chemical substance (yeast gene YHR175W): 1.0
- The level of expressed mRNA in the presence of chemical substance/The level of expressed mRNA in the absence of chemical substance (yeast gene YIL006W): 0.3
- The level of expressed mRNA in the presence of chemical substance/The level of expressed mRNA in the absence of chemical substance (yeast gene YIL022W): 1.2
- The level of expressed mRNA in the presence of chemical substance/The level of expressed mRNA in the absence of chemical substance (yeast gene YIL056W): 1.0
- The level of expressed mRNA in the presence of chemical substance/The level of expressed mRNA in the absence of chemical substance (yeast gene YIL088C): 2.2
- The level of expressed mRNA in the presence of chemical substance/The level of expressed mRNA in the absence of chemical substance (yeast gene YJL034W): 1.1
- The level of expressed mRNA in the presence of chemical substance/The level of expressed mRNA in the absence of chemical substance (yeast gene YJL212C): 1.1
- The level of expressed mRNA in the presence of chemical substance/The level of expressed mRNA in the absence of chemical substance (yeast gene YJL219W): 1.5
- The level of expressed mRNA in the presence of chemical substance/The level of expressed mRNA in the absence of chemical substance (yeast gene YJR077C): 0.9
- The level of expressed mRNA in the presence of chemical substance/The level of expressed mRNA in the absence of chemical substance (yeast gene YJR106W): 1.2
- The level of expressed mRNA in the presence of chemical substance/The level of expressed mRNA in the absence of chemical substance (yeast gene YJR121W): 1.5
- The level of expressed mRNA in the presence of chemical substance/The level of expressed mRNA in the absence of chemical substance (yeast gene YKL016C): 0.8
- The level of expressed mRNA in the presence of chemical substance/The level of expressed mRNA in the absence of chemical substance (yeast gene YKL146W): 1.3
- The level of expressed mRNA in the presence of chemical substance/The level of expressed mRNA in the absence of chemical substance (yeast gene YKR039W): 2.8
- The level of expressed mRNA in the presence of chemical substance/The level of expressed mRNA in the absence of chemical substance (yeast gene YKR067W): 1.8
- The level of expressed mRNA in the presence of chemical substance/The level of expressed mRNA in the absence of chemical substance (yeast gene YLL028W): 1.7
- The level of expressed mRNA in the presence of chemical substance/The level of expressed mRNA in the absence of chemical substance (yeast gene YLL055W): 1.4
- The level of expressed mRNA in the presence of chemical substance/The level of expressed mRNA in the absence of chemical substance (yeast gene YLR081W): 0.9
- The level of expressed mRNA in the presence of chemical substance/The level of expressed mRNA in the absence of chemical substance (yeast gene YLR295C): 1.1
- The level of expressed mRNA in the presence of chemical substance/The level of expressed mRNA in the absence of chemical substance (yeast gene YLR348C): 1.9
- The level of expressed mRNA in the presence of chemical substance/The level of expressed mRNA in the absence of chemical substance (yeast gene YLR378C): 1.2
- The level of expressed mRNA in the presence of chemical substance/The level of expressed mRNA in the absence of chemical substance (yeast gene YMR011W): 0.6
- The level of expressed mRNA in the presence of chemical substance/The level of expressed mRNA in the absence of chemical substance (yeast gene YMR058W): 2.6
- The level of expressed mRNA in the presence of chemical substance/The level of expressed mRNA in the absence of chemical substance (yeast gene YMR162C): 1.0
- The level of expressed mRNA in the presence of chemical substance/The level of expressed mRNA in the absence of chemical substance (yeast gene YMR203W): 1.1
- The level of expressed mRNA in the presence of chemical substance/The level of expressed mRNA in the absence of chemical substance (yeast gene YNL055C): 2.6
- The level of expressed mRNA in the presence of chemical substance/The level of expressed mRNA in the absence of chemical substance (yeast gene YNL259C): 3.9
- The level of expressed mRNA in the presence of chemical substance/The level of expressed mRNA in the absence of chemical substance (yeast gene YNR072W): 0.9
- The level of expressed mRNA in the presence of chemical substance/The level of expressed mRNA in the absence of chemical substance (yeast gene YOL119C): 0.9
- The level of expressed mRNA in the presence of chemical substance/The level of expressed mRNA in the absence of chemical substance (yeast gene YOL156W): 1.2
- The level of expressed mRNA in the presence of chemical substance/The level of expressed mRNA in the absence of chemical substance (yeast gene YOL163W): 0.5
- The level of expressed mRNA in the presence of chemical substance/The level of expressed mRNA in the absence of chemical substance (yeast gene YOR035C): 1.9
- The level of expressed mRNA in the presence of chemical substance/The level of expressed mRNA in the absence of chemical substance (yeast gene YOR130C): 1.6
- The level of expressed mRNA in the presence of chemical substance/The level of expressed mRNA in the absence of chemical substance (yeast gene YOR153W): 7.4
- The level of expressed mRNA in the presence of chemical substance/The level of expressed mRNA in the absence of chemical substance (yeast gene YOR270C): 1.8
- The level of expressed mRNA in the presence of chemical substance/The level of expressed mRNA in the absence of chemical substance (yeast gene YOR273C): 0.4
- The level of expressed mRNA in the presence of chemical substance/The level of expressed mRNA in the absence of chemical substance (yeast gene YOR316C): 0.9
- The level of expressed mRNA in the presence of chemical substance/The level of expressed mRNA in the absence of chemical substance (yeast gene YOR328W): 2.9
- The level of expressed mRNA in the presence of chemical substance/The level of expressed mRNA in the absence of chemical substance (yeast gene YOR332W): 1.8
- The level of expressed mRNA in the presence of chemical substance/The level of expressed mRNA in the absence of chemical substance (yeast gene YOR348C): 0.7
- The level of expressed mRNA in the presence of chemical substance/The level of expressed mRNA in the absence of chemical substance (yeast gene YPL036W): 0.7
- The level of expressed mRNA in the presence of chemical substance/The level of expressed mRNA in the absence of chemical substance (yeast gene YPL134C): 1.2
- The level of expressed mRNA in the presence of chemical substance/The level of expressed mRNA in the absence of chemical substance (yeast gene YPL265W): 2.3
- The level of expressed mRNA in the presence of chemical substance/The level of expressed mRNA in the absence of chemical substance (yeast gene YPL271W): 3.3
- The level of expressed mRNA in the presence of chemical substance/The level of expressed mRNA in the absence of chemical substance (yeast gene YPR124W): 2.0
- The level of expressed mRNA in the presence of chemical substance/The level of expressed mRNA in the absence of chemical substance (yeast gene YPR192W): 0.9
- The level of expressed mRNA in the presence of chemical substance/The level of expressed mRNA in the absence of chemical substance (yeast gene YPR194C): 1.5
